# Measurements as given in patent US7070796B1 (Debiopharm S.A., priority 1999, dated 2006).
# Key:
# [1] = aqueous medium
# From the text: Some of these tests will appear in the examples as comparatives.
# Staphylococcus aureus = experiment: Efficacy of the antimicrobial conservation (European Pharmacopea 5.1.3); type: cell-based; settings: oxaliplatinum in solution, test of artificial contamination recommended by the Pharmacopea
# Procedure: Under these conditions, the obtained results have shown a definite reduction of the staphylococcus aureus population with a Δlog of 5,99 after 24 hours.
# [2] = Solvent optimization above 10 mg/ml, visual observation, with temperature variations; type: physicochemical; settings: for visual aspect of mixture: aqueous, ad 25 ml
# Procedure: First it has been carried to 60° C. and maintained at this temperature under agitation during one hour. […] It was then submitted to three successive freezing with, in the interval, return to the room temperature. This solution has then staid seven days in a fridge.
Compound,"effect of the substance, mixed with or solubilised in water, on oxaliplatinum solubility [1]",antimicrobial efficacy in words (Staphylococcus aureus),"visual aspect of mixture ([2]; 400 mg oxaliplatinum and 12,5 g maltitol)","visual aspect of solution ([2]; 337,5 mg oxaliplatinum and 5 g maltitol ad 25 ml, 60° C. under agitation during one hour)","crystal formation ([2]; 337,5 mg oxaliplatinum and 5 g maltitol ad 25 ml, three successive freezing, then seven days in a fridge, return to room temperature)","visual aspect of mixture ([2]; 337,5 mg oxaliplatinum and 5 g maltitol)","dissolution in words ([2]; 379,7 mg oxaliplatinum in 25 ml glycerol to 85%)"
Tween 20,ineffective,,,,,,
N[C@@H]1CCCC[C@H]1N.O=C([O-])C(=O)[O-].[Pt+2] [oxaliplatinum],,antimicrobial efficacy,residues appear,clear and colorless,no crystal has been observed,clear,partly dissolve
